# “Also recorded” adds a separate entry of the source.
# B1: tomato α-mannosidase: enzyme purified from pericarp of breaker stage tomato; SEQ ID NO: 2 (protein, listed as Solanum lycopersicum)
# chain: MKNMGKFEIWFLILMVCGLWVVEAKYMVYNTSQGIVSGKLNVHLVPHTHDDVGWLKTVDQYYVGSNNSIQVACVQNVLDSLIPALLADKNRKFIYVEQAFFQRWWRNQSPGMQSTVKQLVNSGQLESINGGWCMHDEAATHYIDMIDQTTLGHKYIKQQFNVTPRIGWQIDPFGTFCCSGIPSGSKGWIRLSFLWDALTTKDREKRKIEKSLEVIWRGSKSLSSSTQIFSGAFPQNYEPPSKFYFEVNDDNSLPVQDDVNLFDYNVQERVNDFVAAALSQANITRTNHIMWTMGTDFKYQYAHTWFRNMDKLIHYVNQDGRVNALYSSPSIYTDAKYALDESWPLKTDDYFPYADRINAYWTGYFTSRPALKLYVRMMSGYYLAARQLEFFKGRIETGPTTEILADALAIAQHHDAVSGTPKQHVADDYAKRLFIGYKQAEDLVSNSLACMVESASASGCKNPQINFKQCPLLNISYCPPTEADLAPGKKLVVVVYNALGWKRTDVVRIPVVNKNVIVEDSTGKEIESQLLPIVKESIVIRNYYAAAYFGESPTSSPKYWLVFTATVPPLGFSSYVITSGKQAVAASIPQTFYKTDGSQSDAVEVGPGNLKLLYSANGAKFTQYFNKRNQVRSSLEQSFSYYSADDGSKDDYKDIQASGAYVFRPNGSFPIHPEGKVPATILRGPLLDEVHQNINSWIYQITRVYKEKEHVEVEFTVGPIPIDNGIGKELVTQIQTDIKSNKTFYTDSNGRDFLKRVRDYRADWDLQVNQPAAGNYYPINLGLFLKDNNNEFSVLVDRSVGGSSLVDGQLELMLHRRLLNDDGRGVAEALNETVCALGKCMGLTVQGKYYIRIDSLGEGAKWRRSFGQEIYSPLLLAFTEQDGDKFTKFPVPTFTGMDPSYSLPDNVAIITLQELEDHTVLLRLAHLYEVDEDKDLSTKASVELKRLFPKRKINKIREMSLSANQERVEMEKKRLKWKAEAPSDLRDVARGGPVDPTKLMVELAPMEIRTFVIDLSQSVPEGWKSHMSL
# modifications: Protein sequence of alpha mannosidase
# B2: tomato α-mannosidase (Solanum lycopersicum) (protein)
# chain: KYMVYNTSQGIVSGKLNVHLVPHTHDDVGWLKTVDQYYVGSNNSIQVACVQNVLDSLIPALLADKNRKFIYVEQAFFQRWWRNQSPGMQSTVKQLVNSGQLESINGGWCMHDEAATHYIDMIDQTTLGHKYIKQQFNVTPRIGWQIDPFGTFCCSGIPSGSKGWIRLSFLWDALTTKDREKRKIEKSLEVIWRGSKSLSSSTQIFSGAFPQNYEPPSKFYFEVNDDNSLPVQDDVNLFDYNVQERVNDFVAAALSQANITRTNHIMWTMGTDFKYQYAHTWFRNMDKLIHYVNQDGRVNALYSSPSIYTDAKYALDESWPLKTDDYFPYADRINAYWTGYFTSRPALKLYVRMMSGYYLAARQLEFFKGRIETGPTTEILADALAIAQHHDAVSGTPKQHVADDYAKRLFIGYKQAEDLVSNSLACMVESASASGCKNPQINFKQCPLLNISYCPPTEADLAPGKKLVVVVYNALGWKRTDVVRIPVVNKNVIVEDSTGKEIESQLLPIVKESIVIRNYYAAAYFGESPTSSPKYWLVFTATVPPLGFSSYVITSGKQAVAASIPQTFYKTDGSQSDAVEVGPGNLKLLYSANGAKFTQYFNKRNQVRSSLEQSFSYYSADDGSKDDYKDIQASGAYVFRPNGSFPIHPEGKVPATILRGPLLDEVHQNINSWIYQITRVYKEKEHVEVEFTVGPIPIDNGIGKELVTQIQTDIKSNKTFYTDSNGRDFLKRVRDYRADWDLQVNQPAAGNYYPINLGLFLKDNNNEFSVLVDRSVGGSSLVDGQLELMLHRRLLNDDGRGVAEALNETVCALGKCMGLTVQGKYYIRIDSLGEGAKWRRSFGQEIYSPLLLAFTEQDGDKFTKFPVPTFTGMDPSYSLPDNVAIITLQELEDHTVLLRLAHLYEVDEDKDLSTKASVELKRLFPKRKINKIREMSLSANQERVEMEKKRLKWKAEAPSDLRDVARGGPVDPTKLMVELAPMEIRTFVIDLSQSVPEGWKSHMSL
# Experiments:
# [1] = system: α-mannosidase gene expression; experiment: Geraniol/ACC treatment of seedlings, real-time RT-PCR of mannosidase expression; assay type: in vivo, tomato (Pusa Ruby); details: for regulation of α-mannosidase expression: rin and/or wild type, relative to control
# Text: Geraniol is an acyclic dietary monoterpene, having in vitro and in vivo antitumor activity against various cancer cell lines and is therefore considered as a new class of agents for cancer chemoprevention. It was also reported that geraniol interferes with the membrane functions of Candida albicans and Saccharomyces cervisiae. […] This instigated us to further analyze the role of geraniol on α-mannosidase induction in pleiotropic rin mutant. The rin seedlings were fed with 10% geraniol and samples collected.
# RNA was isolated according to the Lithium chloride method and quantified using nanodrop (ND-100). 5 μg of total RNA was reverse transcribed to cDNA using superscript II (Invitrogen). Quantitative RT-PCR was performed using light Cycler Version 4.05 (Roche diagnostics) with cyber green. The cycle consisted of initial 10 min Taq activation at 95° C. followed by 45 cycles, consisting of 10 s at 94° C., 10 s at 55° C. and 10 s at 72° C. Then the melt curve analysis was performed to verify the fidelity of the amplification. Using the 2^−ΔΔ CT method, the data is presented as the fold change in gene expression normalized to an endogenous reference gene and relative to the control. The gene encoding actin was used as the endogenous control.
# Pusa Ruby seeds were sterilized and germinated on MS medium. After 15 days the seedlings were transferred to a liquid media containing 10 mM geraniol in 20% DMSO or 1 mM ACC (1-aminocyclopropane-1-carboxylic acid) in water. The RNA was isolated from the harvested sample and reverse transcribed to cDNA for real-time RT-PCR analysis. Expression was calculated relative to the control seedlings (0 hr).
# tomato α-mannosidase [2] = target: T1, tomato α-mannosidase (Solanum lycopersicum, UniProt D3TI68); experiment: N-linked oligosaccharide cleavage, HPAE chromatography; assay type: biochemical; details: incubated at 37° C. overnight, Carbopac PA-1 column
# Method: (§1) The temperature and pH optimum for the enzyme was 45° C. and pH 6.0, respectively. […] To identify the nature of the tomato α-mannosidase it was resolved on SDS-PAGE and subjected to PAS staining, the protein stained positive for glycoproteins. […] In order to correlate specific activity at particular ripening stage with the protein accumulation, immunoblot analysis of all the stages was done using polyclonal antibody raised against 70 kD subunit of the protein homologus to α-mannosidase. […] Our finding was further reinforced by a report in Arabidopsis which classified α-mannosidase homologue (Q8LPJ3) into cell wall protein with a signal peptide for secretion. To decipher the role of α-mannosidase on N-glycans and their processing, we targeted three N-linked oligosaccharides (Oligomannose-3, Oligomannose-5 and Oligomannose-9) commonly found in the fruit pericarp. To verify its action on N-glycans, α-mannosidase was incubated with N-linked oligosaccharides at 37° C. overnight and the reaction mixture was resolved on Carbopac PA-1 column.
# One μg of protein was incubated with 100 ng each of N-linked oligosaccharides (Dextra, U.K) at 37° C. overnight and the sample was filtered through PVDF membrane to remove the enzyme. 10 μl of the filtered sample was used for the analysis. An HPAE-PAD system (Dionex DX 500 BioLC) equipped with a gradient pump (GP 40), an anion exchange column (Carbopac PA-1, 4×250 mm) an eluant degas module (EDM-2) for pressurizing the eluants with argon was used for the analysis of monosaccharides. The separated monosaccharides were detected by an ED 40 detector equipped with a gold electrode and an Ag/AgCl reference electrode. The resulting chromatographic data was integrated and plotted using a PC based oracle 2 data acquisition system (Indtech Analytical, Bombay), The standard (mannose) was injected at a concentration of 100 nmoles before and after the analysis of each sample to confirm the results. This confirmed the N-glycan processing ability of mannosidase
# [3] = cited from earlier work
# tomato α-mannosidase [4] = target: T1, tomato α-mannosidase; experiment: Mannosidase enzyme assay and biochemical characterization
# Method: as §1
# Mannosidase was assayed in one ml of the reaction mixture consisting of 940 μl of MQ, 20 μl of 20 mM substrate (pNP-α-D-mannopyrinoside) and 20 μl aliquot of the enzyme at 37° C. for 15 min along with a blank devoid of the enzyme. The reaction was stopped by adding of 40 μl of 0.5M Na2CO3. The colour developed as result of pNP release was recorded at 405 nm and quantified using a standard curve.
# [5] = substrate: O=[N+]([O-])c1ccc(O[C@H]2O[C@H](CO)[C@@H](O)[C@H](O)[C@@H]2O)cc1; experiment: as above; design: species or system tomato (Solanum lycopersicum); details: other: purified tomato enzyme; pH 6.0
# Method: as §1
# Mannosidase was assayed in one ml of the reaction mixture consisting of 940 μl of MQ, 20 μl of 20 mM substrate (pNP-α-D-mannopyrinoside) and 20 μl aliquot of the enzyme at 37° C. for 15 min along with a blank devoid of the enzyme. […] The colour developed as result of pNP release was recorded at 405 nm and quantified using a standard curve.
molecule,measurement,setting,value
"NC1(C(=O)O)CC1 [ACC, 1-aminocyclopropane-1-carboxylic acid]",regulation of α-mannosidase expression,[1]; seedlings,up regulate
CC(=O)N[C@H]1[C@H](O[C@H]2[C@H](O)[C@@H](NC(C)=O)C(O)O[C@@H]2CO)O[C@H](CO)[C@@H](O[C@@H]2O[C@H](CO[C@H]3O[C@H](CO[C@H]4O[C@H](CO)[C@@H](O)[C@H](O)[C@@H]4O)[C@@H](O)[C@H](O[C@H]4O[C@H](CO)[C@@H](O)[C@H](O)[C@@H]4O)[C@@H]3O)[C@@H](O)[C@H](O[C@H]3O[C@H](CO)[C@@H](O)[C@H](O)[C@@H]3O)[C@@H]2O)[C@@H]1O (stereo partly drawn) [Oligomannose-5],cleavage by α-mannosidase,tomato α-mannosidase [2],able to cleave terminal mannose residue/s
CC(=O)N[C@H]1[C@H](O[C@H]2[C@H](O)[C@@H](NC(C)=O)C(O)O[C@@H]2CO)O[C@H](CO)[C@@H](O[C@@H]2O[C@H](CO[C@H]3O[C@H](CO)[C@@H](O)[C@H](O)[C@@H]3O)[C@@H](O)[C@H](O[C@H]3O[C@H](CO)[C@@H](O)[C@H](O)[C@@H]3O)[C@@H]2O)[C@@H]1O (stereo partly drawn) [Oligomannose-3],cleavage by α-mannosidase,tomato α-mannosidase [2],able to cleave terminal mannose residue/s
CC(=O)N[C@H]1[C@H](O[C@H]2[C@H](O)[C@@H](NC(C)=O)C(O)O[C@@H]2CO)O[C@H](CO)[C@@H](O[C@@H]2O[C@H](CO[C@H]3O[C@H](CO[C@H]4O[C@H](CO)[C@@H](O)[C@H](O)[C@@H]4O[C@H]4O[C@H](CO)[C@@H](O)[C@H](O)[C@@H]4O)[C@@H](O)[C@H](O[C@H]4O[C@H](CO)[C@@H](O)[C@H](O)[C@@H]4O[C@H]4O[C@H](CO)[C@@H](O)[C@H](O)[C@@H]4O)[C@@H]3O)[C@@H](O)[C@H](O[C@H]3O[C@H](CO)[C@@H](O)[C@H](O)[C@@H]3O[C@H]3O[C@H](CO)[C@@H](O)[C@H](O)[C@@H]3O[C@H]3O[C@H](CO)[C@@H](O)[C@H](O)[C@@H]3O)[C@@H]2O)[C@@H]1O (stereo partly drawn) [Oligomannose-9],cleavage by α-mannosidase,tomato α-mannosidase [2],able to cleave terminal mannose residue/s
CC(C)=CCC/C(C)=C/CO [geraniol],solubility in water,[3],not soluble in water
same,α-mannosidase transcript up regulated,"[1]; rin mutant seedlings fed with 10% geraniol, after 30 min",up to 6 fold
same,up-regulation in mannosidase gene expression,"[1]; seedlings, geraniol in 20% DMSO, after 30 min, compared to control (DMSO only)",up to 3 fold
same,regulation of α-mannosidase expression,[1]; seedlings,upregulated; also recorded: induced
B1,pH optimum,tomato α-mannosidase [4],6.0
same,temperature optimum,tomato α-mannosidase [4],45 °C
same,thermal stability without considerable reduction in the activity,tomato α-mannosidase [4]; for 1 hr,≤ 60 °C
B2,Km,[5],4.6 mM

# Reference: patent publication US8962918B2, “Polynucleotide sequence of fruit softening associated A-mannosidase and its uses for enhancing fruit shelf life” (National Institute of Plant Genome Research, priority 2008, dated 2015)
